Our source for the IC50 values is patent publication US7973069B2 (PTC Therapeutics, Inc., priority 2004, dated 2011).

Several values for one entry are separate records, joined by “and”; a condition that tells them apart may be missing. Identical values can stand only once.

The subject of the assay is HCV replicon. The assay is classed as cell-based.
`CCn1c(-c2ccc(NC(=O)NC(C)C)cc2)c(C#N)c2ccc(OCCF)cc21` [Compound 956]: the IC50 (commonly the concentration that gives 50% inhibition) is below 0.5 µM. Then `CCCCNC(=O)Nc1ccc(-c2c(C#N)c3ccc(OCCF)cc3n2CC)cc1` [Compound 957], with below 0.5 µM; and `C=CCNC(=O)Nc1ccc(-c2c(C#N)c3ccc(OCCF)cc3n2CC)cc1` [Compound 958], with 0.5 to 2 µM and < 0.5 µM; and `CCn1c(-c2ccc(NS(C)(=O)=O)c(C)c2)c(C#N)c2ccc(OC)cc21` [Compound 959], with 0.5 to 2 µM.

As to `CCn1c(-c2ccc(NS(=O)(=O)CC)c(C)c2)c(C#N)c2ccc(OC)cc21` [Compound 960], the 50% inhibitory concentration (IC50) lay in the range of 0.5 to 2 µM.

Turning to `CCCS(=O)(=O)Nc1ccc(-c2c(C#N)c3ccc(OC)cc3n2CC)cc1C` [Compound 961], the IC50 lay within 0.5 to 2 µM.

Consider `CCn1c(-c2ccc(NS(=O)(=O)C3CC3)c(C)c2)c(C#N)c2ccc(OC)cc21` [Compound 962], for which the IC50 lay in the range of 0.5 to 2 µM. `CCn1c(-c2ccc(NC(=O)OC)c(C)c2)c(C#N)c2ccc(OC)cc21` [Compound 963] showed a 50% inhibitory concentration (IC50) of 0.5 to 2 µM.

`CCOC(=O)Nc1ccc(-c2c(C#N)c3ccc(OC)cc3n2CC)cc1C` [Compound 964]: the IC50 lay within 0.5 to 2 µM.

On to `CCCOC(=O)Nc1ccc(-c2c(C#N)c3ccc(OC)cc3n2CC)cc1C` [Compound 965], for which the IC50 is 0.5 to 2 µM. The result for `CCNC(=O)Nc1ccc(-c2c(C#N)c3ccc(OC)cc3n2CC)cc1C` [Compound 966] reads 0.5 to 2 µM; that for `CCCNC(=O)Nc1ccc(-c2c(C#N)c3ccc(OC)cc3n2CC)cc1C` [Compound 967], 0.5 to 2 µM. With `CCn1c(-c2ccc(NS(=O)(=O)CC)cc2)c(C#N)c2ccc(C(=O)OC)cc21` [Compound 968], the half-maximal inhibitory concentration (IC50) is < 0.5 µM and 0.5 to 2 µM. The result for `CCn1c(-c2ccc(N3CCCS3(=O)=O)cc2)c(C#N)c2ccc(C(F)(F)F)cc21` [Compound 969] reads below 0.5 µM; that for `CCOc1ccc2c(C#N)c(-c3ccc(NC(=O)OC)cc3)n(C3CCC3)c2c1` [Compound 970], below 0.5 µM. The result for `CCOC(=O)Nc1ccc(-c2c(C#N)c3ccc(OCC)cc3n2C2CCC2)cc1` [Compound 971] reads below 0.5 µM; that for `CCCOC(=O)Nc1ccc(-c2c(C#N)c3ccc(OCC)cc3n2C2CCC2)cc1` [Compound 972], below 0.5 µM.

The compound `CCOc1ccc2c(C#N)c(-c3ccc(NC(=O)OC(C)C)cc3)n(C3CCC3)c2c1` [Compound 973] registered a half-maximal inhibitory concentration (IC50) below 0.5 µM. The result for `CCOc1ccc2c(C#N)c(-c3ccc(NC(=O)OCCF)cc3)n(C3CCC3)c2c1` [Compound 974] reads below 0.5 µM. With `CCOc1ccc2c(C#N)c(-c3ccc(NC(=O)OCCOC)cc3)n(C3CCC3)c2c1` [Compound 975], the concentration for half-maximal inhibition (IC50) was in the range of 0.5 to 2 µM. Turning to `CC#CCOC(=O)Nc1ccc(-c2c(C#N)c3ccc(OCC)cc3n2C2CCC2)cc1` [Compound 976], the IC50 was in the range of 0.5 to 2 µM. Then `CCOc1ccc2c(C#N)c(-c3ccc(NC(=O)OCCCCl)cc3)n(C3CCC3)c2c1` [Compound 977], with below 0.5 µM; and `CCOc1ccc2c(C#N)c(-c3ccc(NC(=O)Oc4ccc(OC)cc4)cc3)n(C3CCC3)c2c1` [Compound 978], with 0.5 to 2 µM.

Compound `CCOc1ccc2c(C#N)c(-c3ccc(NC(=O)OCC(C)C)cc3)n(C3CCC3)c2c1` [Compound 979] had a half-maximal inhibitory concentration (IC50) below 0.5 µM.

With `CCOc1ccc2c(C#N)c(-c3ccc(N4CCCS4(=O)=O)cc3)n(C3CCC3)c2c1` [Compound 980], the IC50 was above 2 µM. Then `C=CCOC(=O)Nc1ccc(-c2c(C#N)c3ccc(OCC)cc3n2C2CCC2)cc1` [Compound 981], with below 0.5 µM. In turn, `COc1ccc2c(C#N)c(-c3ccc(NS(=O)(=O)C4CC4)cc3)n(CC3CC3)c2c1` [Compound 982] returned a half-maximal inhibitory concentration (IC50) above 2 µM.

Compound `COc1ccc2c(C#N)c(-c3ccc(NC(=O)C4CC4)cc3)n(CC3CC3)c2c1` [Compound 983] displayed an IC50 of 0.5 to 2 µM. The compound `CCOC(=O)Nc1ccc(-c2c(C#N)c3ccc(OC)cc3n2CC2CC2)cc1` [Compound 984] displayed a 50% inhibitory concentration (IC50) of 0.5 to 2 µM. Then `CCCOC(=O)Nc1ccc(-c2c(C#N)c3ccc(OC)cc3n2CC2CC2)cc1` [Compound 985], with 0.5 to 2 µM.
